Experiments:
[1] = test system: Mexican bean beetle (MBB) larvae; experiment: Spray test, Mexican bean beetle (MBB) larvae on bean leaves; type: in vivo; conditions: approx. 48 h after spraying
Procedure: (§1) Three 5 oz paper cups containing Henderson dwarf lima bean plants and one 5 oz paper cup containing Orange Gem nasturtiums, all growing in vermiculite, are placed on a turntable and sprayed to thorough wetness with 25 ml of a solution of the candidate chemical at the appropriate concentration. Nasturtiums were already infested with 50-100 bean aphids (BA). A bean plant in one paper cup was already infested with 50-100 two-spotted mites (TSM). Leaves from the two remaining bean plants are removed following spraying and placed in disposable petri dishes with 5 southern armyworm (SA) larvae in one petri dish, and 5 Mexican bean beetle (MBB) larvae in the other petri dish. The rating is done approximately 48 hours after spraying as follows:
(§2) So as to obtain more meaningful results, all tests are performed at the same time of day, whenever possible, usually in the forenoon. Temperature,illumination and humidity are the same in all tests. Atmospheric pressure is not controlled.
(§3) Results obtained with the novel insecticides of this invention at various concentrations of active chemical are tabulated below. The ratings given are for averages of three or more replicates. The oral lethal dose for 50 percent kill of laboratory rats is also recorded in the table. In conducting the toxicity tests on rats, 0.01 g of active chemical per ml in corn oil is employed as an additive to the diet of the animals.

[2] = test system: Southern Corn Rootworm (SCR); experiment: Southern Corn Rootworm (SCR) soil treatment test, root feeding damage on corn; type: in vivo; parameters: scale not given here; conditions: nine days after treatment
Procedure: Three 5 oz paper cups planted each with one kernel of DeKalb XL-361 corn are treated two days after planting with 10 ml of a 125 ppm solution of the candidate compound. Compounds with high efficacy are treated at lower concentrations. The experiment is a 4×5 factorial in a randomized complete block design with three replications. The tests are evaluated nine days after treatment. The roots are inspected under a dissecting microscope and rated as follows:
as §2, §3

[3] = test system: southern armyworm (SA) larvae; experiment: Spray test, southern armyworm (SA) larvae on bean leaves; type: in vivo; conditions: approx. 48 h after spraying
Procedure: as §1, §2, §3

[4] = Oral toxicity test on laboratory rats; conditions: rat, in vivo, in corn oil as additive to the diet, read-out: LD50 (oral lethal dose for 50 percent kill of laboratory rats)
Procedure: as §3

two-spotted mites (TSM) = experiment: Spray test, two-spotted mites (TSM) on bean plants; type: in vivo; conditions: approx. 48 h after spraying
Procedure: as §1, §2, §3

bean aphids (BA) = experiment: Spray test, bean aphids (BA) on nasturtiums; type: in vivo; conditions: approx. 48 h after spraying
Procedure: as §1, §2, §3

insects = experiment: Insecticidal activity (general statement); conditions: statement in words

| SMILES | MBB rating (larvae dead) ([1]; 15 ppm) | MBB rating (larvae dead) ([1]; 31 ppm) | MBB rating (larvae dead) ([1]; 62 ppm) | MBB rating (larvae dead) ([1]; 125 ppm) | MBB rating (larvae dead) ([1]; 250 ppm) | MBB rating (larvae dead) ([1]; 500 ppm) | SA rating (larvae dead) ([3]; 500 ppm) | LD50 [4] | TSM rating (dead adults) (two-spotted mites (TSM); 500 ppm) | BA rating (dead) (bean aphids (BA); 2 ppm) | BA rating (dead) (bean aphids (BA); 4 ppm) | BA rating (dead) (bean aphids (BA); 8 ppm) | BA rating (dead) (bean aphids (BA); 15 ppm) | BA rating (dead) (bean aphids (BA); 31 ppm) | BA rating (dead) (bean aphids (BA); 62 ppm) | BA rating (dead) (bean aphids (BA); 125 ppm) | BA rating (dead) (bean aphids (BA); 250 ppm) | BA rating (dead) (bean aphids (BA); 500 ppm) | SA rating (larvae dead) ([3]; 15 ppm) | SA rating (larvae dead) ([3]; 31 ppm) | further results |
| --- | --- | --- | --- | --- | --- | --- | --- | --- | --- | --- | --- | --- | --- | --- | --- | --- | --- | --- | --- | --- | --- |
| C=CCSc1nc(C(C)(C)C)nn1C(=O)N(C)C [R=2-propenyl (allyl), R'=tert.butyl, 1-Dimethylcarbamyl-3-tert.butyl-5-allylthio-1H-1,2,4-triazole] | 0 (no larvae dead) | 0 (no larvae dead) | 1 (1 -25% larvae dead) | 5 (100% larvae dead) | 5 (100% larvae dead) | 5 (100% larvae dead) | 1 (1-25% larvae dead) | 17 mg/kg | 0 (no dead adults) | 2 (26-50% dead) | 3 (51-75% dead) | 4 (76-99% dead) | 5 (100% dead) | 5 (100% dead) | 5 (100% dead) | 5 (100% dead) | 5 (100% dead) | 5 (100% dead) |  |  | SCR Rating (root feeding damage) ([2]; 25 ppm): 2.5 |
| C=CCSc1nc(C(C)C)nn1C(=O)N(C)C [R=2-propenyl (allyl), R'=isopropyl] | 0 (no larvae dead) | 0 (no larvae dead) | 2 (26-50% larvae dead) | 5 (100% larvae dead) | 5 (100% larvae dead) | 5 (100% larvae dead) | 5 (100% larvae dead) | 10 to 50 mg/kg | 0 (no dead adults) | 0 (none dead) | 2 (26-50% dead) | 4 (76-99% dead) | 5 (100% dead) | 5 (100% dead) | 5 (100% dead) | 5 (100% dead) | 5 (100% dead) | 5 (100% dead) | 0 (no larvae dead) | 0 (no larvae dead) | SCR Rating (root feeding damage) ([2]; 3 ppm): 3.5; SA rating (larvae dead) ([3]; 62 ppm): 0 (no larvae dead); SA rating (larvae dead) ([3]; 125 ppm): 0 (no larvae dead); SA rating (larvae dead) ([3]; 250 ppm): 0 (no larvae dead) |
| C#CCSc1nc(C2CC2)nn1C(=O)N(C)C [R=2-propynyl (propargyl), R'=cyclopropyl] | 1 (1 -25% larvae dead) | 1 (1 -25% larvae dead) | 3 (51-75% larvae dead) | 5 (100% larvae dead) | 5 (100% larvae dead) | 5 (100% larvae dead) | 5 (100% larvae dead) | 10 mg/kg | 5 (100% dead adults) | 1 (1-25% dead) | 3 (51-75% dead) | 5 (100% dead) | 5 (100% dead) | 5 (100% dead) | 5 (100% dead) | 5 (100% dead) | 5 (100% dead) | 5 (100% dead) | 0 (no larvae dead) | 0 (no larvae dead) | SCR Rating (root feeding damage) ([2]; 25 ppm): 1.3; SCR Rating (root feeding damage) ([2]; 50 ppm): 4.3; SCR Rating (root feeding damage) ([2]; 100 ppm): 4.3; SA rating (larvae dead) ([3]; 62 ppm): 0 (no larvae dead); SA rating (larvae dead) ([3]; 125 ppm): 2 (26-50% larvae dead); SA rating (larvae dead) ([3]; 250 ppm): 4 (76-99% larvae dead); TSM rating (dead adults) (two-spotted mites (TSM); 15 ppm): 0 (no dead adults); TSM rating (dead adults) (two-spotted mites (TSM); 31 ppm): 0 (no dead adults); TSM rating (dead adults) (two-spotted mites (TSM); 62 ppm): 2 (26-50% dead adults); TSM rating (dead adults) (two-spotted mites (TSM); 125 ppm): 4 (76-99% dead adults); TSM rating (dead adults) (two-spotted mites (TSM); 250 ppm): 4 (76-99% dead adults) |
| C#CCSc1nc(C(C)(C)C)nn1C(=O)N(C)C [R=2-propynyl, R'=tert.butyl] | 4 (76-99% larvae dead) | 5 (100% larvae dead) | 5 (100% larvae dead) | 5 (100% larvae dead) | 5 (100% larvae dead) | 5 (100% larvae dead) | 5 (100% larvae dead) | > 50 mg/kg | 1 (1-25% dead adults) |  | 5 (100% dead) | 5 (100% dead) | 5 (100% dead) | 5 (100% dead) | 5 (100% dead) | 5 (100% dead) | 5 (100% dead) | 5 (100% dead) | 0 (no larvae dead) | 0 (no larvae dead) | MBB rating (larvae dead) ([1]; 4 ppm): 0 (no larvae dead); MBB rating (larvae dead) ([1]; 8 ppm): 0 (no larvae dead); SCR Rating (root feeding damage) ([2]; 6 ppm): 3.5; SCR Rating (root feeding damage) ([2]; 12 ppm): 4.5; SA rating (larvae dead) ([3]; 62 ppm): 0 (no larvae dead); SA rating (larvae dead) ([3]; 125 ppm): 2 (26-50% larvae dead); SA rating (larvae dead) ([3]; 250 ppm): 5 (100% larvae dead) |
| C#CCSc1nc(C2CCCCC2)nn1C(=O)N(C)C [1-N,N-dimethylcarbamyl-3-cyclohexyl-5-propargylthio-1,2,4-triazole] |  |  |  |  |  |  |  |  |  |  |  |  |  |  |  |  |  |  |  |  | insecticidal activity (insects): virtually useless as insecticides |

Source: US4160839A, “Carbamyltriazole insecticides” (priority 1976, dated 1979)
